Test results as given in PubChem BioAssay AID1963437 (Molecular Pharmacology Branch, DTP, NCI, 2024).
Blank lines part the entries; values can stand above or below the molecule they belong to.

System: OVCAR-8 complex spheroid, growth inhibition
Experiment: Anticancer human tumor OVCAR-8 cell line growth inhibition [Asc];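 note: spheroids exposed to agents for 7 days before readout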;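 for viability, T/C: percent viability relative to DMSO vehicle wells taken as 100%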
Details: for IC50: curve of first compound; for viability, T/C: stronger effect = lower value
Summary of the method: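 Complex solid-tumor spheroids incorporating human endothelial and mesenchymal stem cells received single agents or combinations over half-log dilution ranges anchored to clinical Cmax.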

[1] = second compound 0.00316 µM, first compound 0.0316 µM
[2] = second compound 0.00316 µM, first compound 0.1 µM
[3] = second compound 0.00316 µM, first compound 0.316 µM
[4] = second compound 0.00316 µM, first compound 1 µM
[5] = second compound 0.00316 µM, first compound 3.16 µM
[6] = second compound 0.00316 µM, first compound 10 µM
[7] = second compound 0.01 µM, first compound 0.0316 µM
[8] = second compound 0.01 µM, first compound 0.1 µM
[9] = second compound 0.01 µM, first compound 0.316 µM
[10] = second compound 0.01 µM, first compound 1 µM
[11] = second compound 0.01 µM, first compound 3.16 µM
[12] = second compound 0.01 µM, first compound 10 µM
[13] = second compound 0.0316 µM, first compound 0.0316 µM
[14] = second compound 0.0316 µM, first compound 0.1 µM
[15] = second compound 0.0316 µM, first compound 0.316 µM
[16] = second compound 0.0316 µM, first compound 1 µM
[17] = second compound 0.0316 µM, first compound 3.16 µM
[18] = second compound 0.0316 µM, first compound 10 µM
[19] = second compound 0.1 µM, first compound 0.0316 µM
[20] = second compound 0.1 µM, first compound 0.1 µM
[21] = second compound 0.1 µM, first compound 0.316 µM
[22] = second compound 0.1 µM, first compound 1 µM
[23] = second compound 0.1 µM, first compound 3.16 µM
[24] = second compound 0.1 µM, first compound 10 µM
[25] = second compound 0.316 µM, first compound 0.0316 µM
[26] = second compound 0.316 µM, first compound 0.1 µM
[27] = second compound 0.316 µM, first compound 0.316 µM
[28] = second compound 0.316 µM, first compound 1 µM
[29] = second compound 0.316 µM, first compound 3.16 µM
[30] = second compound 0.316 µM, first compound 10 µM
[31] = second compound 1 µM, first compound 0.0316 µM
[32] = second compound 1 µM, first compound 0.1 µM
[33] = second compound 1 µM, first compound 0.316 µM
[34] = second compound 1 µM, first compound 1 µM
[35] = second compound 1 µM, first compound 3.16 µM
[36] = second compound 1 µM, first compound 10 µM

IC50 (second compound 0.00316 µM): > 10 µM
IC50 (second compound 0.01 µM): > 10 µM
IC50 (second compound 0.0316 µM): > 10 µM
IC50 (second compound 0.1 µM): > 10 µM
IC50 (second compound 0.316 µM): > 10 µM
IC50 (second compound 1 µM): > 10 µM
SMILES: C#Cc1c(F)ccc2cc(O)cc(-c3ncc4c(N5CC6CCC(C5)N6)nc(OCC56CCCN5CC(F)C6)nc4c3F)c12 (centres undefined) + CNC(C)C(=O)NC1CN(S(=O)(=O)c2cccc(S(=O)(=O)N3CCC4CCC(C(=O)NC(c5ccccc5)c5ccccc5)N4C(=O)C(NC(=O)C(C)NC)C3)c2)CCC2CCC(C(=O)NC(c3ccccc3)c3ccccc3)N2C1=O
viability, T/C [1]: 106%
viability, T/C [2]: 93.7%
viability, T/C [3]: 87.8%
viability, T/C [4]: 90.2%
viability, T/C [5]: 101%
viability, T/C [6]: 135%
viability, T/C [7]: 104%
viability, T/C [8]: 89.9%
viability, T/C [9]: 91%
viability, T/C [10]: 103%
viability, T/C [11]: 96.4%
viability, T/C [12]: 112%
viability, T/C [13]: 89%
viability, T/C [14]: 83.2%
viability, T/C [15]: 83%
viability, T/C [16]: 88.2%
viability, T/C [17]: 96.4%
viability, T/C [18]: 136%
viability, T/C [19]: 80.6%
viability, T/C [20]: 95.4%
viability, T/C [21]: 88.4%
viability, T/C [22]: 82.7%
viability, T/C [23]: 85.8%
viability, T/C [24]: 98.2%
viability, T/C [25]: 74%
viability, T/C [26]: 87.6%
viability, T/C [27]: 80.2%
viability, T/C [28]: 89.9%
viability, T/C [29]: 77.1%
viability, T/C [30]: 119%
viability, T/C [31]: 80.9%
viability, T/C [32]: 86.1%
viability, T/C [33]: 112%
viability, T/C [34]: 91.6%
viability, T/C [35]: 88.5%
viability, T/C [36]: 109%

IC50 (second compound 0.00316 µM): > 10 µM
IC50 (second compound 0.01 µM): > 10 µM
IC50 (second compound 0.0316 µM): > 10 µM
IC50 (second compound 0.1 µM): > 10 µM
IC50 (second compound 0.316 µM): > 10 µM
IC50 (second compound 1 µM): > 10 µM
SMILES: C=CC(=O)N1CCN(c2nc(=O)n(-c3c(C)ccnc3C(C)C)c3nc(-c4c(O)cccc4F)c(F)cc23)C(C)C1 (centres undefined) + CNC(C)C(=O)NC1CN(S(=O)(=O)c2cccc(S(=O)(=O)N3CCC4CCC(C(=O)NC(c5ccccc5)c5ccccc5)N4C(=O)C(NC(=O)C(C)NC)C3)c2)CCC2CCC(C(=O)NC(c3ccccc3)c3ccccc3)N2C1=O
viability, T/C [1]: 105%
viability, T/C [2]: 89.3%
viability, T/C [3]: 105%
viability, T/C [4]: 98.7%
viability, T/C [5]: 88.3%
viability, T/C [6]: 112%
viability, T/C [7]: 96.9%
viability, T/C [8]: 95%
viability, T/C [9]: 83.6%
viability, T/C [10]: 89.2%
viability, T/C [11]: 90.6%
viability, T/C [12]: 122%
viability, T/C [13]: 94.3%
viability, T/C [14]: 90.5%
viability, T/C [15]: 91.2%
viability, T/C [16]: 81.9%
viability, T/C [17]: 86.4%
viability, T/C [18]: 103%
viability, T/C [19]: 85.8%
viability, T/C [20]: 81.4%
viability, T/C [21]: 89.7%
viability, T/C [22]: 86.1%
viability, T/C [23]: 80%
viability, T/C [24]: 92.2%
viability, T/C [25]: 80%
viability, T/C [26]: 84.2%
viability, T/C [27]: 107%
viability, T/C [28]: 69.4%
viability, T/C [29]: 79.6%
viability, T/C [30]: 90.8%
viability, T/C [31]: 68.4%
viability, T/C [32]: 79.8%
viability, T/C [33]: 79.1%
viability, T/C [34]: 84.7%
viability, T/C [35]: 65.5%
viability, T/C [36]: 69.1%
